Experimental data taken from patent publication US20250066318A1, “HETEROCYCLIC COMPOUNDS AS DYRK1A INHIBITORS” (Prothena Biosciences Limited, priority 2021, published 2025).

Molecular target: DYRK1A (Homo sapiens (Human), UniProt Q13627)
Assay: DYRK1A Inhibition Assay
Type: biochemical
Conditions: Selected Compounds of Formula (I); DYRK1A 1 nM, ATP 20 μM, Ser/Thr 18 peptide 2 μM, 90 minutes; read-out: DYRK1 IC50
Method: DYRK1A—Invitrogen #PV4105
Ser/Thr 18 peptide—Invitrogen #PR8227U Phos-Ser/Thr 18 peptide—Invitrogen #PR8229U Assay plate—PerkinElmer #6007279
Development reagent A—Invitrogen #PR5194B Development buffer—Invitrogen #PR4876B
1. Test compounds were diluted to 1 mM in DMSO 2. Stock was further diluted 3-fold using Echo platform 3. 100 nL of DMSO into Columns 1 and 24 and 100 nL of compounds dilutions to Columns 2-23 in a plate.
1. Add 5 μL enzyme & substrate mixture to each well in Column 2-23 and A24-H24 wells of the 384-well assay plate; 2. Add 5 μL 0% Phosphorylation control to A1-H1 and I24-P24 wells of the assay plate; 3. Add 5 μL 100% Phosphorylation control to I1-P1 wells of the assay plate; 4. Spin the assay plate (1000 rpm, 1 minute @23° C.); 5. Incubate enzyme with compounds for 15 minutes at 23° C.; 6. Add 5 μL ATP solution to each well of the assay plate; 7. Spin the plate (1000 rpm, 1 minute @23° C.); 8. Incubate the assay plate for 90 minutes at 23° C.; 9. Add 10 μL Development reagent A to each well of the assay plate; 10. Centrifuge the plate at 1000 rpm about 15 seconds and seal a film over assay plate. Incubate the assay plate for 30 minutes at 23° C. 11. Read assay plates on Envision (see Tables A, B, and C).
Final Compound Concentrations
Assay buffer: 50 mM Hepes pH7.5, 10 mM MgCl2, 1 mM EDTA, 0.01% Brij-35
Ser/Thr 18 peptide: 2 μM Reaction time: 90 minutes

IC50 [µM] | SMILES
0.1 to 1 | O=C(O)C1CCN(Cc2cncc3ccc(-c4cnc(C#CC5CCOCC5)s4)cc23)CC1 [Compound 91]
≤ 0.01 | CN1CC(OC(=O)Nc2cc3cc(-c4cnn(C)c4)ccc3cn2)C1 [Compound 84]
≤ 0.01 | O=C(O)[C@H]1C[C@H](Nc2ncc(-c3ccc4cnccc4c3)s2)C1 [Compound 72]
> 1 | CC(C)(O)C#Cc1ncc(-c2ccc3cncc(CN4CCC(C(=O)O)CC4)c3c2)s1 [Compound 109]
